Assay results taken from patent US11801256B2, “Antidepressant-psilocybin co-treatment to assist psychotherapy” (Universitätsspital Basel, priority 2021, dated 2023).
Like-named read-outs stand apart in the source and are kept apart here.

Legend:
healthy subjects [1] = assay: Adverse effects (list of complaints) and adverse events; type: in vivo, human
Description: (§1) Treatment order was random and counterbalanced.
Adverse effects (list of complaints): The list of complaints (LC) consists of 66 items offering a global score measuring physical and general discomfort (Zerssen, 1976). This scale yields a total adverse effects score and reliably measures physical and general discomfort. The LC list was administered 7 hours after administration of the drug with reference to complaints throughout the entire session.

CYP2C19 = CYP2C19 (Homo sapiens, UniProt P33261); conditions: FDA, 2017; Swissmedic, 2020; cited from earlier work
healthy subjects [2] = assay: Mystical Experience Questionnaire (MEQ30, MEQ43); type: in vivo, human; conditions: escitalopram 14 days pretreatment vs placebo; P=0.001
Description: as §1
Mystical experiences were assessed using the German version (Liechti et al., 2017) of the 100-item States of Consciousness Questionnaire (SOCQ) (Griffiths et al., 2006) that includes the 43-item and newer 30-item MEQ (MEQ43 (Griffiths et al., 2006) and MEQ30 (Barrett et al., 2015)). The scale was be administered once at the end of each test session.

[3] = Plasma drug concentrations and pharmacokinetic analyses; type: in vivo, human; conditions: for concentration at 14 days: human, in vivo
Description: The blood samples were immediately centrifuged, and the plasma was subsequently stored at −80° C. until analysis.
This allows to determine the concentrations of unconjugated psilocin and of psilocin glucuronide which corresponds to the difference between samples that were incubated with and without glucuronidase.

healthy subjects [4] = assay: Adjective Mood Rating Scale (AMRS); type: in vivo, human; conditions: escitalopram 14 days pretreatment vs placebo; P=0.007
Description: as §1
The 60-item Adjective Mood Rating Scale (AMRS) (Janke & Debus, 1978) was administered before and 2, 3, 5, and 7 hours after psilocybin administration.
(§2) The criterion for significance was p<0.05.

healthy subjects [5] = assay: 5 Dimensions of Altered States of Consciousness Scale (5D-ASC); type: in vivo, human; conditions: escitalopram 14 days pretreatment vs placebo
Description: as §1
5-Dimensional Altered States of Consciousness (5D-ASC): The 5-dimensional Altered States of Consciousness (5D-ASC) Scale is a visual analog scale consisting of 94 items (Dittrich, 1998; Studerus et al., 2010). The instrument contains five main scales (FIG. 17) and 11 newer subscales (FIG. 18) assessing mood, anxiety, derealization, depersonalization, changes in perception, auditory alterations, and reduced vigilance. The scale is well-validated (Studerus et al., 2010). The total ASC score is the sum of the three main dimensions/scales Oceanic Boundlessness (OB), Anxious Ego Dissolution (AED) and Visionary Restructuralization (VR). There are two additional main scales measuring Auditory Alterations (AA) and Vigilance Reduction (VIR) (FIG. 17). The 5D-ASC scale was administered once at the end of the session and subjects were instructed to retrospectively rate peak alterations that have been experienced during the study session. Each item of the scale is scored on a 0-100 mm VAS. The attribution of the individual items to the subscales of the 5D-ASC was analyzed according to (Dittrich, 1998; Studerus et al., 2010) and as shown in FIG. 18. The scale was be administered once at the end of each test session.

healthy subjects [6] = assay: Subjective effects, visual analog scales (VAS), clinical study; type: in vivo, human
Description: as §1
Study procedures: Subjects took part in a 2-hour screening session, two 9.5-hour test sessions where the psilocybin was administered and a 1-hour end-of-study visit. The subjects were informed about the study both verbally and by the approved written consent form regarding the altered state of consciousness, the study procedures and associated risks. The investigator and the subject both personally signed and dated the consent form as confirmation of consent. Subjects were screened using a semi-structured clinical interview for DSM-IV (Diagnostic and Statistical Manual Version 4) (Wittchen et al., 1997) to exclude those with a personal or family (first-degree relative) axis I major psychiatric disorder (acute or past) or a history of illicit drug dependence. Axis I major psychiatric disorders included also addiction disorders. The sessions were conducted in a calm standard hospital room. Only one research subject and one investigator were present during the test sessions. The test sessions began at 9 AM. The subjects then underwent baseline measurements. […] Psilocybin was administered at 11:00 AM. The outcome measures were repeatedly assessed for 7 hours. The subjects were under constant supervision by an investigator until 6 PM. Thus, the subjects were never alone during the 7 hours after drug administration. The subjects were sent home at 6:30 PM.
Subjective Effects Questionnaire (Visual Analog Scales, VAS): VAS was repeatedly used to assess subjective alterations in consciousness over time. Single scales were presented as 100 mm horizontal lines marked with “not at all” on the left and “extremely” on the right. The following VAS items were used: “any drug effect”, “good drug effect”, “bad drug effect”, “drug liking”, “drug high”, “stimulated”, “fear”, “happy”, “content”, “trust”, “talkative”, “perception of time”, “open”, “concentration”, “speed of thinking”, “feeling close to others”, “wanting to be hugged”, “wanting to hug someone”, “desire to be alone”, “desire to be with others”, and “ego dissolution”. The VASs were presented as 100-mm horizontal lines (0-100%), marked from “not at all” on the left to “extremely” on the right. Some VASs were bidirectional (±50%). Marked from “not at all” on the left (−50), to “normal” in the middle (0), to “extremely” on the right (+50).
as §2

[7] = any time during escitalopram pretreatment
[8] = escitalopram pretreatment compared with placebo pretreatment (summary)
[9] = escitalopram 14 days pretreatment vs placebo
[10] = escitalopram 14 days pretreatment vs placebo, P=0.004

Chain of CYP2C19 (P33261 whole entry): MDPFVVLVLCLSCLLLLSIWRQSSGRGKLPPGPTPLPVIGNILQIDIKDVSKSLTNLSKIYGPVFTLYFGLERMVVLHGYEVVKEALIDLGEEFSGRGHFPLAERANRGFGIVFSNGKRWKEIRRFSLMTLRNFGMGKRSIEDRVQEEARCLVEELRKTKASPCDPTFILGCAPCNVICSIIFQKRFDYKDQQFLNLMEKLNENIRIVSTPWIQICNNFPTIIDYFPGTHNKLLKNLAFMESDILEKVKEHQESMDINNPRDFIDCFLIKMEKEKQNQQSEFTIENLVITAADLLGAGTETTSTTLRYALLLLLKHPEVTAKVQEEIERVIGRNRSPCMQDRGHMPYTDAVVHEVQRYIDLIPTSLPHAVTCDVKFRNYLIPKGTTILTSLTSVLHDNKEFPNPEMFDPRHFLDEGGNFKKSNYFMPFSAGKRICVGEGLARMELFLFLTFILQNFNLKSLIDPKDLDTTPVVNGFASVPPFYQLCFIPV

CN(C)CCC[C@@]1(c2ccc(F)cc2)OCc2cc(C#N)ccc21 [Escitalopram, escitalopram]
adverse events during pretreatment: bruxism (healthy subjects [1]; [7]): 2 subjects
adverse events during pretreatment: decreased libido (healthy subjects [1]; [7]): 5 subjects
adverse events during pretreatment: diarrhea (healthy subjects [1]; [7]): 2 subjects
adverse events during pretreatment: difficulty concentrating (healthy subjects [1]; [7]): 1 subjects
adverse events during pretreatment: dizziness (healthy subjects [1]; [7]): 2 subjects
adverse events during pretreatment: dysorgasmia (healthy subjects [1]; [7]): 2 subjects
adverse events during pretreatment: feeling depressed (healthy subjects [1]; [7]): 3 subjects
adverse events during pretreatment: headache (healthy subjects [1]; [7]): 6 subjects
adverse events during pretreatment: increased appetite (healthy subjects [1]; [7]): 2 subjects
adverse events during pretreatment: insomnia (healthy subjects [1]; [7]): 2 subjects
adverse events during pretreatment: loss of appetite (healthy subjects [1]; [7]): 3 subjects
adverse events during pretreatment: nausea (healthy subjects [1]; [7]): eight
adverse events during pretreatment: restless legs (healthy subjects [1]; [7]): 2 subjects
adverse events during pretreatment: tiredness (healthy subjects [1]; [7]): 6 subjects
adverse events during pretreatment: visual disturbance (healthy subjects [1]; [7]): 1 subjects
effect on other adverse effects of psilocybin (healthy subjects [1]; [8]): significantly reduced
severe adverse event (symptomatic vertebral disc hernia) (healthy subjects [1]; participant on escitalopram pretreatment, five days, prior to psilocybin): one
inhibition of CYP2C19 function (CYP2C19): slightly inhibits
effect on psilocybin-induced nadir effects in the MEQ43 (healthy subjects [2]): significantly reduced
peak plasma concentrations (mean, range) ([3]; after 14 days escitalopram (10 mg 7 days, 20 mg 7 days)): 41 (35-53) ng/mL
effect on the pharmacokinetics of 4-HIAA [3, 9]: did not relevantly or significantly alter
effect on the pharmacokinetics of psilocin [3, 9]: did not relevantly or significantly alter
effect on the pharmacokinetics of psilocin glucuronide [3, 9]: did not relevantly or significantly alter
concentration at 14 days ([3]; after 14 days escitalopram (10 mg 7 days, 20 mg 7 days), read-out: plasma concentrations (mean, range)): 41 ng/mL
concentration at 14 days ([3]; after 14 days escitalopram, described as high, read-out: plasma concentrations in all subjects): < 35 ng/mL
effect on psilocybin-induced anxiety in the AMRS (healthy subjects [4]): significantly reduced
effect on psilocybin-induced anxiety in the 5D-ASC (healthy subjects [5]; P=0.026): significantly reduced
effect on psilocybin-induced anxious ego dissolution in the 5D-ASC (healthy subjects [5]; P=0.029): significantly reduced
effect on good drug effects of psilocybin (healthy subjects [6]; [9]): did not significantly reduce
reduction of peak anxiety induced by psilocybin (healthy subjects [6]; [10]): 50%
reduction of peak bad drug effects induced by psilocybin (healthy subjects [6]; [10]): 50%
effect on any drug effects in response to psilocybin (healthy subjects [6]; escitalopram 14 days pretreatment vs placebo, P=0.015): slightly, but significantly reduced
effect on the response to psilocybin, overall (healthy subjects [6]; escitalopram pretreatment 14 days (10 mg 7 days, 20 mg 7 days) before 25 mg psilocybin, compared to placebo pretreatment): only a small effect
effect on psilocybin-induced fear (healthy subjects [6]; escitalopram pretreatment compared to psilocybin alone (summary)): reduced
effect on anxiety of psilocybin (in words) (healthy subjects [6]; [8]): significantly reduced
effect on bad drug effects of psilocybin (in words) (healthy subjects [6]; [8]): significantly reduced
effect on the positive mood effects of psilocybin (healthy subjects [6]; [8]): no relevant effect
